Experimental data as given in patent publication US3932664A, “Substituted phenoxyalkyl quaternary ammonium compounds as antiarrhythemic agents” (priority 1974, dated 1976).

Legend:
[1] = tested on: electrically induced ventricular fibrillation in dogs; assay: threshold for electrically induced ventricular fibrillation in electrically paced dogs; type: in vivo, dog; settings: intravenous
[2] = tested on: multifocal ventricular arrhythmias induced by n-hexane and epinephrine in dogs; assay: protection against multifocal ventricular arrhythmias induced by n-hexane and epinephrine in dogs; type: in vivo; settings: dog, intravenous
Text: [2-(4-Amino-2,6-dibromophenoxy)ethyl]dimethyl-(2-methylallyl)ammonium chloride is employed to alleviate multifocal ventricular arrhythmias induced by administration of n-hexane and epinephrine. In these operations, dogs are anesthetized by intravenous administration of 30 milligrams of pentobarbital sodium per kilogram. Transient ventricular arrhythmias are induced by a modification of the method of Garb and Chenowith, J. Pharmacol. Exp. Ther. 94; 12 (1948) in which the heart is sensitized by intratracheal injection of 0.04 milliliter of n-hexane per kilogram, followed in 15 seconds by rapid intravenous administration of 1-epinephrine bitrate at a dosage rate of 10 micrograms per kilogram. Such procedure produces a transient arrhythmia lasting about 10 seconds. Duration of protection by a test compound is evaluated by repeating the n-hexane and epinephrine challenge periodically and monitoring electrocardiogram and arterial blood pressure. […] When the same compound is administered at a dosage rate of 2 milligrams per kilogram, the duration of protection is found to be greater than 2 hours.
In similar operations, dosages of 5 to 10 milligrams per kilogram are found to be required to obtain similar antiarrhythmic effects when the known antiarrhythmic agent, quinidine sulfate, is employed as a test compound.

[3] = blood and heart levels in rabbits after oral and intravenous administration; type: in vivo; settings: rabbit
[4] = tested on: ouabain-induced ventricular tachycardia in dogs; assay: conversion of ouabain-induced ventricular tachycardia to normal sinus rhythm in anesthetized dogs; type: in vivo, dog; settings: intravenous; for mean duration of sinus rhythm: group of three dogs
Text: Ventricular tachycardia is produced in dogs in a method similar to the method of Lucchesi and Hardman (J. Pharmacol. Exptl. Therap., 132, 372, 1961) by the administration of ouabain. In such operations, a dog is anesthetized by the intravenous administration of pentobarbital sodium at a dosage rate of 30 milligrams per kilogram. A femoral artery is cannulated with polyethylene tubing for measurements of blood pressure. A femoral vein is similarly cannulated for administration of ouabain and administration of the test compound. Hypodermic needle electrodes are employed for recording electrocardiograms. In such operations, ouabain is administered intravenously by infusion at a constant rate via the cannulated femoral vein. The infusion rate is 35 micrograms of ouabain per kilogram of animal body weight per hour. Within 1 to 1.5 hours following the start of the infusion, a ventricular tachycardia is seen to develop.
After ventricular tachycardia is observed, a test compound is administered intravenously by administration of varying amounts of a composition comprising 50 milligrams of the test compound as a sterile solution in 10 milliliters of water containing 0.9 percent sodium chloride. Each dose is administered slowly over a period of 15 to 30 seconds. The compound is administered at an initial dosage rate of 0.25 milligram of test compound per kilogram of animal body weight. Blood pressure and electrocardiogram are observed for 5 minutes after administration. When a complete conversion from the arrhythmic condition to normal sinus rhythm is not observed within the 5 minute period, a second dose of 0.50 milligram of the test compound per kilogram is administered by a similar procedure and blood pressure and heartbeat are similarly observed for 5 minutes. When complete conversion of the ventricular tachycardia to normal sinus rhythm is not observed, the dosage is increased two-fold every five minutes until complete conversion is obtained. The animal is then observed and the duration of the period of normal cardiac rhythm produced by administration of the test compound is recorded as the duration of antiarrhythmic activity. The termination of the period of normal activity is marked by the reappearance of ventricular tachycardia or fibrillation as indicated by the electrocardiogram observations. The antiarrhythmic dosage of test compound sufficient to bring about a complete conversion of the cuabain-induced tachycardia, and the duration of the period of normal cardiac activity are set out below.
The procedure of Example 26 is repeated, employing the compound of Example 1, [ 2-(4-amino-2,6-dibromophenoxy)-ethyl]-dimethyl(2-methylallyl)ammoniumchloride, as a test compound. In these operations two groups of three dogs each are administered the test compound intravenously at anti-arrhythmic dosage rates of 1 and 2 milligrams per kilogram after ectopic ventricular rhythms have been established by continuous infusion of cuabain.

[5] = tested on: arrhythmia after experimental coronary artery occlusion in dogs; assay: abnormal complexes after experimental occlusion of the anterior descending coronary artery in dogs; type: in vivo; settings: dog
Description: An experimental occlusion of the anterior descending coronary artery is produced in dogs according to the method of Harris, Circulation 1, 1318 (1950). Following surgery the animals are given a penicillin-streptomycin preparation and allowed to recover for 18-24 hours. The animals are given 3 milligrams per kilogram of morphine sulfate as an analgetic and sedative to allow handling. Electrocardiograms are recorded both before and after administration of [2-([…])ethyl]dimethyl-(2-methylallyl)ammonium chloride to the test animals. The incidence of abnormal complexes (premature ventricular contractions and atrioventricular nodal beats) per minute is recorded as a percentage of total beats per minute. In one such operation the test compound is administered by intravenous infusion at rates of 1, 2, 2 and 2 milligrams per kilogram at intervals of 10 to 15 minutes. […] Following the last infusion of test compound the heartbeat rate is observed to have decreased from a rate of over 160 beats per minute prior to the first infusion to about 90-100 beats per minute. The incidence of ectopic beats at this time has decreased from a pre-treatment level of 100 percent abnormal beats per minute to below 60 percent, reaching zero (100 percent normal beats) within about 10 minutes after the last infusion. The lower heartbeat rate and low incidence of abnormal beats (generally 0 to 20 percent of the total beats per minute are abnormal) is found to persist for 2 hours following the last infusion of test compound, at which time the experiment is terminated.
In similar operations, the same test compound is infused at dosages of 1, 2 and 4 milligrams per kilogram at intervals over a forty minute period. Prior to infusion the incidence of abnormal beats is 100 percent. […] The incidence of abnormal beats is found to remain at zero with occasional brief periods of slight arrhythmia (2-5 percent abnormal beats) for 2.5 hours following the last dosage of the test compound, when recording is terminated.
In a similar operation the [2-([…])ethyl]dimethyl(2-methylallyl)ammonium chloride is administered orally in gelatin capsules. The test compound is administered in multiple dosages of 30, 30 and 50 milligrams per kilogram over a period of 150 minutes. […] Antiarrhythmic effects continue to be observed until the recording is terminated 140 minutes after the last dose of test compound.

[6] = iv infusion, following the first infusion (1 mg/kg)

Question: With C=C(C)C[N+](C)(C)CCOc1c(Br)cc(N)cc1Br.[Cl-] [Example 1, [2-(4-amino-2,6-dibromophenoxy)ethyl]-dimethyl(2-methylallyl)ammonium chloride] as the compound, how does the “increase in threshold for electrically induced ventricular fibrillation” value [1] read?
Answer: substantial increases

Question: What about the duration of protection ([2]; 2 mg/kg) of the same compound?
Answer: greater than 2 hours

Question: What about the “duration of antiarrhythmic effect” value ([2]; one mg/kg) of the same compound?
Answer: about 1 hour

Question: And the “protection against the arrhythmias” value ([2]; one mg/kg)?
Answer: excellent protection

Question: And the oral absorption [3]?
Answer: indicate oral absorption

Question: What about the minimal effective dose ([4]; Canis lupus familiaris, iv, dog, dose giving complete conversion of ouabain-induced tachycardia to normal sinus rhythm, read-out: Conversion Dose) of the same compound?
Answer: 0.5 mg/kg

Question: And the “Duration (period of normal cardiac rhythm)” value ([4]; dog, at conversion dose 0.5 mg/kg)?
Answer: 15 min

Question: And the “mean duration of sinus rhythm” value ([4]; 1 mg/kg)?
Answer: 12.7 min

Question: What about the “mean duration of sinus rhythm” value ([4]; 2 mg/kg) of the same compound?
Answer: 26.5 min

Question: And the “conversion of the arrhythmias to sinus rhythm” value ([4]; two groups of three dogs, 1 and 2 mg/kg)?
Answer: Complete conversion of the arrhythmias to sinus rhythm is observed in all the dogs

Question: What about the “time after last infusion to substantially complete conversion to sinus rhythm” value ([5]; infused 1, 2 and 4 mg/kg over forty minutes) of the same compound?
Answer: eight

Question: And the “conversion to sinus rhythm” value ([5]; infused 1, 2 and 4 mg/kg over forty minutes, incidence of abnormal beats 100 percent before)?
Answer: substantially complete conversion to sinus rhythm

Question: What about the “time for which incidence of abnormal beats remains at zero (with occasional slight arrhythmia)” value ([5]; infused 1, 2 and 4 mg/kg, following last dosage, recording then terminated) of the same compound?
Answer: ≥ 2.5 h

Question: What about the “incidence of abnormal beats” value ([5]; infused 1, 2 and 4 mg/kg, for 2.5 hours following the last dosage) of the same compound?
Answer: zero

Question: What about the “anti-arrhythmic effects on resumption of recording” value ([5]; infused 1, 2 and 4 mg/kg, recording resumed 215 minutes later) of the same compound?
Answer: significant anti-arrhythmic effects are still exhibited

Question: What about the “abnormal beats during occasional brief periods of slight arrhythmia” value ([5]; infused 1, 2 and 4 mg/kg, within 2.5 hours following the last dosage) of the same compound?
Answer: 2-5%

Question: What about the “time after last infusion to zero ectopic beats (100 percent normal beats)” value ([5]; iv 1, 2, 2 and 2 mg/kg) of the same compound?
Answer: ≤ 10 min

Question: And the “persistence of lower heartbeat rate and low incidence of abnormal beats” value ([5]; iv 1, 2, 2 and 2 mg/kg, following last infusion, experiment terminated at that time)?
Answer: ≥ 2 h

Question: What about the heartbeat rate ([5]; iv 1, 2, 2 and 2 mg/kg, following last infusion, over 160 beats per minute prior to first infusion, in beats/min) of the same compound?
Answer: 90-100

Question: What about the “incidence of ectopic beats (percent abnormal beats per minute)” value ([5]; iv 1, 2, 2 and 2 mg/kg, following last infusion, pre-treatment 100 percent) of the same compound?
Answer: below 60%

Question: What about the “incidence of ectopic beats” value ([5]; iv 1, 2, 2 and 2 mg/kg, within about 10 minutes after the last infusion) of the same compound?
Answer: zero

Question: And the “change in percentage of abnormal beats per minute” value [5, 6]?
Answer: concomitant decrease

Question: And the “heart beat rate change” value [5, 6]?
Answer: marked decrease

Question: What about the “antiarrhythmic effects of the second and third doses” value ([5]; oral 30, 30 and 50 mg/kg) of the same compound?
Answer: further and more consistent antiarrhythmic effects

Question: What about the “time after last dose to periods with less than 10 percent abnormal beats” value ([5]; oral 30, 30 and 50 mg/kg) of the same compound?
Answer: about 25 minutes

Question: And the “abnormal beats (periods in electrocardiogram)” value ([5]; oral 30, 30 and 50 mg/kg, beginning about 25 minutes after last dose, interspersed with occasional arrhythmia)?
Answer: less than 10%

Question: What about the “time after last dose over which antiarrhythmic effects continue to be observed” value ([5]; oral 30, 30 and 50 mg/kg, recording then terminated) of the same compound?
Answer: ≥ 140 min

Question: And the “time after first dosage to periods of reduced frequency of abnormal heart beats” value ([5]; oral gelatin capsules, 30, 30 and 50 mg/kg over 150 minutes)?
Answer: 10 min
